Results on four compounds are retold here after patent US20250368624A1, “M24B AMINOPEPTIDASE INHIBITORS FOR CARD8 INFLAMMASOME ACTIVATION” (Memorial Sloan-Kettering Cancer Center, priority 2022, published 2025).

SMILES strings stand for the structures. pIC50: −log10 of the molar value.

For one series, the system named is N/TERT-1 keratinocytes. The series is described as follows: Cell viability of N/TERT-1 keratinocytes (NLRP1 inflammasome). Particulars: VbP 10 μM, CQ compounds 20 μM, 24 h, CTG. It counts as cell-based, human. The method, then: Cell Culture. HEK293T, THP-1, RAW264.7 cells were purchased from ATCC. MV4;11, OCI-AML2 cells were purchased from DSMZ. N/TERT1 cells were a gift from the Rheinwald Lab (Dickson et al., 2000). HEK293T and RAW264.7 cells were grown in Dulbecco's Modified Eagle's Medium (DMEM) with L-glutamine and 10% fetal bovine serum (FBS). N/TERT1 cells were grown in Keratinocyte serum free medium (KSFM) supplemented with 1× penicillin/streptomycin, bovine pituitary extract (25 μg/ml) and epidermal growth factor (EGF) (0.2 ng/ml). All other cell lines were grown in Roswell Park Memorial Institute (RPMI) medium 1640 with L-glutamine and 10% fetal bovine serum (FBS). All cells were grown at 37° C. in a 5% CO2 atmosphere incubator. Cell lines were regularly tested for mycoplasma using the MycoAlert™ Mycoplasma Detection Kit (Lonza).
(§1) CellTiter-Glo cell viability and CytoTox-Fluor cell death assays. Cells were plated (2,000 cells per well) in white, 384-well clear-bottom plates (Corning) using an EL406 Microplate Washer/Dispenser (BioTek) in 25 μL final volume of medium. To the cell plates were added compounds at different concentrations using a pintool (CyBio) and the plates were allowed to incubate in the incubator. After incubation for indicated times, CytoTox-Fluor reagent (Promega, G9262) was added according to the manufacturer's protocol. The assay plates were then incubated for another 30 min before fluorescence was recorded using a Cytation 5 Cell Imaging Multi-Mode Reader (BioTek). Next, CellTiter-Glo reagent (Promega, G7573) was subsequently added to the assay plates following the manufacturer's protocol. Assay plates were shaken on an orbital shaker for 2 min and incubated at 25° C. for 10 min. Luminescence was then read using a Cytation 5 Cell Imaging Multi-Mode Reader (BioTek).

The subject of series [1] is primary bone marrow-derived macrophages (BMDMs) and mouse RAW264.7 cells. As to the kind of experiment: LDH release and GSDMD cleavage in BMDMs and RAW264.7 cells (mouse NLRP1). It counts as cell-based. Particulars: VbP 10 μM, CQ31/CQ80 20 μM, 24 h. The method, then:
Mouse BMDM isolation and culture. Bone marrow was harvested from the femurs and tibias of 7-12-week-old C57BL/6J mice. Briefly, femurs and tibias were harvested from mice and crushed with a mortar and pestle in cold 1×PBS supplemented with 2.5% FBS. The mixture was passed through a 70-μm nylon cell strainer. RBCs were lysed for 4-5 min on ice in 1×RBC lysis buffer (Biolegend) and cells were centrifuged at 300×g for 5 min at 4° C. The cell pellet was washed in cold 1×PBS supplemented with 2.5% FBS before being passed again through in a 70-μm nylon cell strainer and counted. Counted cells were plated on non-tissue culture 10-cm plates at 5-10×10^6 cells per plate in DMEM supplemented with 10% FBS and 15-20% L-cell media. Cells were incubated at 37° C. for 6 days before replating and assaying as indicated.
LDH cytotoxicity and immunoblotting assays. HEK293T cells were transiently transfected and treated with inhibitors as indicated. MV4;11, OCI AML2, THP-1, and RAW264.7 cells were plated in 12-well culture plates at 5×10^5 cells/well and treated as indicated. Supernatants were analyzed for LDH activity using the Pierce LDH Cytotoxicity Assay Kit (Life Technologies). LDH activity was quantified relative to a lysis control where cells were lysed in 80 μL of a 9% Triton X-100 solution. For immunoblotting, cells were washed 2× in PBS (pH=7.4), resuspended in PBS, and lysed by sonication. Protein concentrations were determined and normalized using the DCA Protein Assay kit (Bio-Rad). The samples were separated by SDS-PAGE, immunoblotted, and visualized using the Odyssey Imaging System (Li-Cor).
For orientation: LDH in the medium is a marker of cell lysis.

A further series addresses recombinant human PEPD (Homo sapiens (Human), UniProt P12955). As to the kind of experiment: PEPD substrate assay (Ala-Pro cleavage, L-alanine assay kit). It counts as biochemical. To be noted: for pIC50: 50 nM recombinant human PEPD, Ala-Pro 40 μM, 25° C. Here is the method:
Protein purification. Human prolidase (PEPD) was generated and purified. XPNPEP1 in pET15-b containing a 6× His tag was expressed in E. coli Rosetta DE3 cells.
Substrate assays. For the PEPD assay, a solution of substrate (Ala-Pro) was prepared in DMSO. 24 μL of 50 nM recombinant human PEPD were added to a 384-well, black, clear-bottom plate (Corning) with 1 μL dipeptide Ala-Pro (final conc. 40 μM). […] For the AMC reporter assays, experiments were performed with cell lysates. 5 μL solution of substrate (2.5 mM Ala-AMC) was added the mixture of 10 μL HEK293T cell lysates (2.5 mg/ml) and 10 μL of indicated compounds in a 384-well, black, clear-bottom plate (Corning) to initiate the reaction. Substrate cleavage was measured as increasing fluorescence signal (Ex/Em: 380/460 nm) recorded at 25° C. for 20 mins. […] H-Lys(abz)-Pro-Pro-pNA substrate was added to a final concentration of 100 μM, and fluorescence was monitored (Ex/Em: 320/410) for 60 mins.

In another series the target is XPNPEP1 (Homo sapiens (Human), UniProt Q9NQW7). The series is described as follows: XPNPEP1 substrate assay (H-Lys(abz)-Pro-Pro-pNA). Particulars: for pIC50: XPNPEP1 3.5 nM, substrate 100 μM, 60 mins. It counts as biochemical. Here is the method: Protein purification. Human prolidase (PEPD) was generated and purified. XPNPEP1 in pET15-b containing a 6× His tag was expressed in E. coli Rosetta DE3 cells. Cells were induced with IPTG for 16 h at 37° C., pelleted and lysed in buffer A (20 mM Tris-HCl (pH 7.9), 500 mM NaCl, and 10% (v/v) glycerol) by sonication. Affinity purification chromatography was performed using TALON resin and according to previously published protocols (Li et al., 2008).
XPNPEP1, sequence (Q9NQW7 whole entry): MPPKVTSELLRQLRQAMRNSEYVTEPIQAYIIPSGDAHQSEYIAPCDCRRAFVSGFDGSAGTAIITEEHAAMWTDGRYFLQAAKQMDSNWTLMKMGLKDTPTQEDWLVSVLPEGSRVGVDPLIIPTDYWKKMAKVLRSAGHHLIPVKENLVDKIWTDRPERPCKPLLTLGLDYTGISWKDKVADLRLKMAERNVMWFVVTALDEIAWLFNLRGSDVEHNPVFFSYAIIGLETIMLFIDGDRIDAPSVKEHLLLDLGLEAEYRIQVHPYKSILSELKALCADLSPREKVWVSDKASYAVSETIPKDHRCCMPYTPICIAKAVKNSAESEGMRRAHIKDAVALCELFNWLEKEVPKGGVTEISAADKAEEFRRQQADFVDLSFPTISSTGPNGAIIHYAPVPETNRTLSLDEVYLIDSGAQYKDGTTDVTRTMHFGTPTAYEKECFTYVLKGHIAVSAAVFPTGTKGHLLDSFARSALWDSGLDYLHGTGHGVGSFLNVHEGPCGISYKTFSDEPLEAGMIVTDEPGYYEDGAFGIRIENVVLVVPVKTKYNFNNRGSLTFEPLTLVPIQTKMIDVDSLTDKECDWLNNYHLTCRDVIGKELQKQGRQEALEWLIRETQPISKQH
Substrate assays. For the PEPD assay, a solution of substrate (Ala-Pro) was prepared in DMSO. 24 μL of 50 nM recombinant human PEPD were added to a 384-well, black, clear-bottom plate (Corning) with 1 μL dipeptide Ala-Pro (final conc. 40 μM). Alanine liberated was measured as increasing fluorescence signal (Resorufin, Ex/Em: 535/587 nm) recorded at 25° C. using an L-alanine assay kit (Abcam, ab83394) at 25° C. according to manufacturer's instructions. For the AMC reporter assays, experiments were performed with cell lysates. 5 μL solution of substrate (2.5 mM Ala-AMC) was added the mixture of 10 μL HEK293T cell lysates (2.5 mg/ml) and 10 μL of indicated compounds in a 384-well, black, clear-bottom plate (Corning) to initiate the reaction. Substrate cleavage was measured as increasing fluorescence signal (Ex/Em: 380/460 nm) recorded at 25° C. for 20 mins. For XPNPEP1 enzymes (XPNPEP1 3.5 nM) were plated on a black 384-well clear bottom plate and treated with the indicated doses of compounds. H-Lys(abz)-Pro-Pro-pNA substrate was added to a final concentration of 100 μM, and fluorescence was monitored (Ex/Em: 320/410) for 60 mins.

In the next series the test system is MV4;11 WT cells. The series is described as follows: CellTiter-Glo cell viability, WT MV4;11 cells. It counts as cell-based. Particulars: 24 h, CTG. The method, then:
as §1

A short description of series [2]: Stability in cell culture supernatants. It counts as in vitro ADME.
For a further series, the system named is MV4;11 CASP1-/- cells. The series is described as follows: CellTiter-Glo cell viability, CASP1-/- MV4;11 cells. It counts as cell-based. Particulars: Homo sapiens, MV4-11; 24 h, CTG. The method, then: Cloning. CASP1^−/− MV4;11 cells^12; CARD8^−/− MV4;11, THP-1, OCI-AML2 cells^14; DPP8/9^−/− THP-1^12; PEPD^−/−, XPNPEP1^−/−, PEPD XPNPEP1^−/− THP-1 cells were generated. Plasmids for CARD8 variants, CASP1, GSDMD, dTAG-CARD8^ZUC were cloned as described previously (Hollingsworth et al., 2021; Johnson et al., 2018; Sharif et al., 2021).
as §1

The next series relates to OCI-AML2 cells. The series is described as follows: Propidium iodide uptake, OCI-AML2 cells. It counts as cell-based. To be noted: 6.25 μM, compared to CQ31. Here is the method: Propidium iodideflux analysis. 2×10^4 MV4;11 or OCI-AML2 cells were plated in 384-well, black, clear-bottom plate (Corning) in RPMI medium. Cells were then treated as indicated and propidium iodide (PI) was added at a final concentration of 10 μM. PI fluorescence was measured at (Ex/Em: 535/617 nm) recorded at 37° C. every 5 mins in a Cytation 5 Cell Imaging Multi-Mode Reader (BioTek). The obtained measurements were baseline corrected to vehicle/DMSO and normalized to maximum response.

For orientation: pIC50 means −log10 of the IC50, conventionally taken in molar units.

recombinant human PEPD, sequence (P12955 whole entry): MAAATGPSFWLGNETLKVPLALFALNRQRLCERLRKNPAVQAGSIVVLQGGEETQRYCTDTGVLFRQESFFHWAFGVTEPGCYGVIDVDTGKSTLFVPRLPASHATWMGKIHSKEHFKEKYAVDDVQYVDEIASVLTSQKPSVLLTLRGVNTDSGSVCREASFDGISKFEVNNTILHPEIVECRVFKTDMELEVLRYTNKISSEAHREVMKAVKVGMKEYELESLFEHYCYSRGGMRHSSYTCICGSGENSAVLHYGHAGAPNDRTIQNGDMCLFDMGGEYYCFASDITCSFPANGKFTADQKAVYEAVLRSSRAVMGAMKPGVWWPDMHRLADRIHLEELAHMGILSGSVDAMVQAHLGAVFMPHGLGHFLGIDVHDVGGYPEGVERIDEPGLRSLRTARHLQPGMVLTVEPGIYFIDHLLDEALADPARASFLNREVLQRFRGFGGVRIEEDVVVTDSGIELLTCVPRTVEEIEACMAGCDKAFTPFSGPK

Consider `CC(C)[C@H](N)C(=O)N1CCC[C@H]1B(O)O` [VbP, Val-boroPro, reference compound], for which, in the series with N/TERT-1 keratinocytes, the “cell death in N/TERT-1 keratinocytes” value is recorded as “induced cell death”. For the same compound, in series [1], the “pyroptosis (LDH release and GSDMD cleavage)” value is listed as “induced pyroptosis”.
Regarding `CC(C)C[C@@H](N)[C@H](O)C(=O)N1CCC[C@H]1C(=O)OC(C)(C)C` [CQ34, tert-butyl ((2S,3R)-3-amino-2-hydroxy-5-methylhexanoyl)-L-prolinate], the “PEPD inhibition (in words)” value at recombinant human PEPD was “inhibited PEPD and XPNPEP1 inhibitors similarly”. For the same compound, the “XPNPEP1 inhibition (in words)” value on XPNPEP1 is “inhibited PEPD and XPNPEP1 inhibitors similarly”. Also, the “cytotoxicity to MV4;11 cells (in words)” value with MV4;11 WT cells was “slightly more toxic”. Further, the “stability in cell culture supernatants (in words)” value in series [2] is “considerably more stable than CQ31 or CQ94”. Besides, the “time after which completely hydrolyzed” value in series [2] (cell culture supernatants) is listed as at most 8 h.
Take `COC(=O)[C@@H](NC(=O)[C@@H]1CCCN1C(=O)[C@@H](O)[C@H](N)CC(C)C)C(C)C` [CQ78, Methyl ((2S,3R)-3-amino-2-hydroxy-5-methylhexanoyl)-L-prolyl-L-valinate]: the pIC50 on recombinant human PEPD was 5.92; at XPNPEP1, 4.39; with MV4;11 WT cells (Homo sapiens, MV4-11), 6.35; in the series on MV4;11 CASP1-/- cells, under 4.70. For the same compound, in the series on OCI-AML2 cells, the “lytic cell death by uptake of propidium iodide” value is given as “more rapid lytic cell death”.
Consider `CC(C)C[C@H](NC(=O)[C@@H]1CCCN1C(=O)[C@@H](O)[C@H](N)CC(C)C)C(=O)NCCc1ccccc1` [CQ116, (S)-1-((2S,3R)-3-amino-2-hydroxy-5-methylhexanoyl)-N—((S)-4-methyl-1-oxo-1-(phenethylamino)pentan-2-yl)pyrrolidine-2-carboxamide], for which the negative logarithm of the IC50 (pIC50) on recombinant human PEPD was 5.24; against XPNPEP1, 5.47. For the same compound, the “stability in cell culture supernatants (in words)” value in series [2] is “completely stable”.
